Results published in patent publication US7307085B2, “Mitotic kinesin inhibitors” (Merck & Co., Inc., priority 2003, dated 2007).

Biological target: T1, human KSP motor domain (KSP(367H)) (Homo sapiens, UniProt P52732)
T1 construct: were used to amplify the motor domain and the neck linker region; made in house; host or cells: E. coli BL21 (DE3)
T1 sequence (P52732 18-359 limits assumed): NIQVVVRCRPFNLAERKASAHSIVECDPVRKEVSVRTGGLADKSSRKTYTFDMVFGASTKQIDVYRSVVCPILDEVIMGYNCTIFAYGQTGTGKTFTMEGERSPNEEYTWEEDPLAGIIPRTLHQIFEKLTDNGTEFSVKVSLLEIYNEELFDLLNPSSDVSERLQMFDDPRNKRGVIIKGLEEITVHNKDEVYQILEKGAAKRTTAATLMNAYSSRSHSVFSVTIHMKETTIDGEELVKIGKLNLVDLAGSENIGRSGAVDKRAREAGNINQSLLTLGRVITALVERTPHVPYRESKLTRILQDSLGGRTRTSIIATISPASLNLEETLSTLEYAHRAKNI
Assay: Kinesin ATPase In Vitro Assay
Assay type: biochemical
Details: human poly-histidine tagged KSP motor domain with microtubules, 1 mM ATP, 23° C.
From the text: I. Kinesin ATPase In Vitro Assay
Cloning and Expression of Human Poly-Histidine Tagged KSP Motor Domain_(KSP(367H))
Plasmids for the expression of the human KSP motor domain construct were cloned by PCR using a pBluescript full length human KSP construct (Blangy et al., Cell, vol. 83, pp 1159-1169, 1995) as a template. The N-terminal primer 5′-[…] (SEQ.ID.NO.: 1) and the C-terminal primer 5′-[…] […]lCAGGCTTATTCAATAT (SEQ.D.NO.: 2) were used to amplify the motor domain and the neck linker region. The PCR products were digested with AseI and XhoI, ligated into the NdeI/XhoI digestion product of pRSETa (Invitrogen) and transformed into E. coli BL21 (DE3).
Cells were grown at 37° C. to an OD600 of 0.5. […]
The kinesin motor domain is incubated with microtubules, 1 mM ATP (1:1 MgCl2: Na-ATP), and compound at 23° C. in buffer containing 80 mM K-HEPES (pH 7.0), 1 mM EGTA, 1 mM DTT, 1 mM MgCl2, and 50 mM KCl. […] Free phosphate from the ATP hydrolysis reaction is measured via a quinaldine redlammonium molybdate assay by adding a […] volume of quench C (e.g., to a mixture of 40 μl reaction volume+40 μl stop buffer is then added 120 μl quench C). […] Quench C is a 2:1 ratio of quench A:quench B The reaction is incubated for 5-10 minutes at 23° C., and the absorbance of the phospho-molybdate complex is measured at 540 nm.

Row | SMILES | IC50 [µM]
1 | O=C1CC[C@@H]2CC(c3cc(F)ccc3F)=C[C@@H](c3ccccc3)N12 [1-5, (−)-(5S,8aR)-7-(2,5-difluorophenyl)-5-phenyl-1,5,8,8a-tetrahydroindolizin-3(2H)-one] | ≤ 50
2 | O=C1CC[C@@H]2C=C(c3cc(F)ccc3F)C[C@@H](c3ccccc3)N12 [1-6, (+)-(5S,8aR)-7-(2,5-difluorophenyl)-5-phenyl-1,5,6,8a-tetrahydroindolizin-3(2H)-one] | ≤ 50
